These molecules were tested against T1, human Y5 receptor (Homo sapiens, UniProt Q15761) (assay: Y5 receptor binding inhibition test). Conditions: not given.
T1 sequence (Q15761 1-445): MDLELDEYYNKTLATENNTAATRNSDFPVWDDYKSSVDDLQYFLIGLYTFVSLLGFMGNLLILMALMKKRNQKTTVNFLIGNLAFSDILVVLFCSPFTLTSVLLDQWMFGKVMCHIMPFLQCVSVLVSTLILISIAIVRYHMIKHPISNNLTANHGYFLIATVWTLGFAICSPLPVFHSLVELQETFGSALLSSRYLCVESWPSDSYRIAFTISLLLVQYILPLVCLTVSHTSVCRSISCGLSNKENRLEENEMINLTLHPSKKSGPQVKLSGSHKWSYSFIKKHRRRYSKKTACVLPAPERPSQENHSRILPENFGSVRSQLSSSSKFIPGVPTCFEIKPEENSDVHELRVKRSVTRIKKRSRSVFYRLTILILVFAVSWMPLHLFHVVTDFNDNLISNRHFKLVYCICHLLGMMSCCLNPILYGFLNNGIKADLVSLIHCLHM

| SMILES | % Inhibition ratio (10 μM) [%] |
| --- | --- |
| CC(C)n1c2c(c3cc(NC(=O)NCCO)ccc31)CCCC2 [Compound 4-2] | 89 |
| CC(C)n1c2c(c3cc(NC(=O)N(CCO)CCO)ccc31)CCCC2 [Compound 6-2] | 86 |
| CC(C)n1c2c(c3cc(NC(=O)N(C)CCO)ccc31)CCCC2 [Compound 5-4] | 101 |

Same assay, conditions: 2 h, read-out: % Inhibition ratio (10 μM)

| inhibition at 10 µM [%] | SMILES |
| --- | --- |
| 103 | CCCS(=O)(=O)NCCCCCNC(=O)c1ccc2c(c1)c1ccccc1n2CC [Compound 1-11] |
| 82 | CCn1c2ccccc2c2cc(C(=O)NCCCCCNC(=O)c3ccc4[nH]nnc4c3)ccc21 [Compound 1-26] |
| 98 | CCn1c2ccccc2c2cc(C(=O)NCCCCCNS(=O)(=O)N(C)C)ccc21 [Compound 1-24] |
| 69 | CCn1c2c(c3c(O)c(C(=O)NCCCCCNS(=O)(=O)c4cccc5ccccc45)ccc31)CCCC2 [Compound 1-44] |
| 96 | CCn1c2ccccc2c2cc(C(=O)NCCSCCNS(=O)(=O)c3cccc4ccccc34)ccc21 [Compound 1-27] |
| 111 | CCn1c2ccccc2c2cc(C(=O)NCCCCCNS(=O)(=O)c3ccccc3)ccc21 [Compound 1-15] |
| 91 | COCCn1c2ccccc2c2cc(C(=O)NCCCCCNS(=O)(=O)c3cccc4ccccc34)ccc21 [Compound 1-49] |
| 92 | CCn1c2ccccc2c2c(OC)c(C(=O)NCCCCCNS(=O)(=O)c3cccc4ccccc34)ccc21 [Compound 1-36] |
| 100 | CCn1c2ccccc2c2cc(NC(=O)CCCCCNS(=O)(=O)c3cccc4cccnc34)ccc21 [Compound 1-7] |
| 89 | CCn1c2ccccc2c2cc(C(=O)NCCCCCNS(=O)(=O)c3cccnc3)ccc21 [Compound 1-57] |
| 91 | CCOc1c(C(=O)NCCCCCNS(=O)(=O)c2cccc3ccccc23)ccc2c1c1c(n2CC)CCCC1 [Compound 1-40] |
| 77 | CCn1c2ccccc2c2cc(C(=O)NCCCCCNC(=O)c3cccnc3)ccc21 [Compound 1-23] |
| 88 | CCn1c2ccccc2c2cc(C(=O)NCCCCCNC(=O)C(C)C)ccc21 [Compound 1-18] |
| 87 | CCn1c2c(c3cc(C(=O)NCCCCCNS(=O)(=O)c4cccc5ccccc45)ccc31)CCCC2 [Compound 1-45] |
| 80 | CCn1c2c(c3cc(C(=O)NCCOCCNS(C)(=O)=O)ccc31)CCCC2 [Compound 1-51] |
| 75 | CCn1c2ccccc2c2cc(C(=O)NC3CCC(CNS(=O)(=O)c4cccc5ccccc45)CC3)ccc21 (stereo not drawn) [Compound 1-35] |
| 86 | CC(C)S(=O)(=O)NCCCCCNC(=O)c1ccc2c(c1)c1c(n2CCOCCO)CCCC1 [Compound 1-60] |
| 73 | CCn1c2ccccc2c2cc(NS(C)(=O)=O)ccc21 [Compound 3-8] |
| 54 | CCn1c2c(c3cc(C(=O)NCCCCCNS(=O)(=O)c4cccc5ccccc45)c(O)cc31)CCCC2 [Compound 1-43] |
| 52 | CCn1c2ccccc2c2c(O)c(C(=O)NCCCCCNS(=O)(=O)c3cccc4ccccc34)ccc21 [Compound 1-41] |

| inhibition at 10 µM [%] | SMILES |
| --- | --- |
| 89 | CCn1c2c(c3cc(NC(C)=O)ccc31)CCC2 [Compound 3-3] |
| 97 | CCn1c2ccccc2c2cc(C(=O)NCCCCCNS(=O)(=O)c3cccc4ccccc34)ccc21 [Compound 1-32] |
| 89 | CCn1c2ccccc2c2cc(C(=O)NCCNCCNS(=O)(=O)c3cccc4ccccc34)ccc21 [Compound 1-29] |
| 91 | CCn1c2ccccc2c2cc(NC(=O)CCCCCNS(=O)(=O)c3cccc4ccccc34)ccc21 [Compound 1-2] |
| 94 | CCn1c2ccccc2c2cc(C(=O)NCCCCNS(=O)(=O)c3cccc4ccccc34)ccc21 [Compound 1-31] |
| 100 | CCn1c2ccccc2c2cc(NC(=O)CCNS(=O)(=O)c3cccc4ccccc34)ccc21 [Compound 1-4] |
| 106 | CCn1c2ccccc2c2cc(C(=O)NCCCCCNS(=O)(=O)c3ccc4ccccc4c3)ccc21 [Compound 1-14] |
| 94 | CCn1c2c(c3cc(NC(C)=O)ccc31)CCCCC2 [Compound 3-2] |
| 88 | CCn1c2c(c3cc(NC(C)=O)ccc31)CCCC2 [Compound 3-1] |
| 94 | CCn1c2ccccc2c2cc(C(=O)NCCCCCNS(=O)(=O)c3cccc4cccnc34)ccc21 [Compound 1-16] |
| 100 | CC(C)n1c2ccccc2c2cc(C(=O)NCCCCCNS(=O)(=O)c3cccc4ccccc34)ccc21 [Compound 1-47] |
| 100 | CCn1c2ccccc2c2cc(NC(=O)C3CC3)ccc21 [Compound 3-5] |
| 99 | CCn1c2ccccc2c2cc(C(=O)NCCCCCNS(C)(=O)=O)ccc21 [Compound 1-10] |
| 100 | CC(C)n1c2c(c3cc(NC(=O)N(C)CCc4ccncc4)c(F)cc31)CCCC2 [Compound 12-1] |
| 95 | CCn1c2ccccc2c2cc(NC(=O)CCCCNS(=O)(=O)c3cccc4ccccc34)ccc21 [Compound 1-1] |
| 88 | CCn1c2c(c3cc(C(=O)NCCOCCNS(=O)(=O)C(C)C)ccc31)CCCC2 [Compound 1-52] |
| 100 | CCn1c2ccccc2c2cc(C(=O)NCCCCCNC(=O)c3ccc4[nH]ccc4c3)ccc21 [Compound 1-25] |
| 102 | Cn1c2ccccc2c2cc(C(=O)NCCCCCNS(=O)(=O)c3cccc4ccccc34)ccc21 [Compound 1-46] |
| 100 | CCn1c2ccccc2c2cc(NC(=O)CCCCCNC(=O)c3cccnc3)ccc21 [Compound 1-8] |

| SMILES | inhibition at 10 µM [%] |
| --- | --- |
| CCCCn1c2ccccc2c2cc(C(=O)NCCCCCNS(=O)(=O)c3cccc4ccccc34)ccc21 [Compound 1-48] | 96 |

Same assay, conditions: test compound 10 μM; 3H-NPY; membrane of insect cells expressing human Y5 receptor; 4° C., 2 hours; relative to Y5 specific binding in solvent group

| % Inhibition ratio (10 μM) [%] | SMILES |
| --- | --- |
| 100 | CC(C)n1c2c(c3cc(NC(=O)N4CCC[C@H]4CO)ccc31)CCCC2 [Compound 7-5] |
| 108 | CC(C)n1c2c(c3cc(NC(=O)N(C)CC(O)CO)ccc31)CCCC2 (stereo not drawn) [Compound 5-26] |
| 98 | CC(C)n1c2c(c3cc(NC(=O)N(C)CCSc4nnc[nH]4)ccc31)CCCC2 [Compound 5-23] |
| 94 | CC(C)n1c2c(c3cc(NC(=O)N4CCOCC4)ccc31)CCC2 [Compound 10-4] |
| 100 | CC(C)n1c2c(c3cc(NC(=O)N(C)[C@H]4CC[C@H](O)CC4)ccc31)CCCC2 [Compound 5-12] |
| 87 | CC(C)n1c2c(c3cc(NC(=O)N(C)CCN4CCN(C)CC4)ccc31)CCCC2 [Compound 5-15] |
| 100 | COCCCCN(C)C(=O)Nc1ccc2c(c1)c1c(n2C(C)C)CCCC1 [Compound 5-7] |
| 98 | CC(C)n1c2c(c3cc(NC(=O)N4CCCCCC4)ccc31)CCCC2 [Compound 7-3] |
| 100 | CC(C)n1c2c(c3cc(NC(=O)N(C)CCCn4ccnc4)ccc31)CCCC2 [Compound 5-22] |
| 97 | CC(C)n1c2c(c3cc(NC(=O)N(C)C4CCCCC4)ccc31)CCCC2 [Compound 5-11] |
| 97 | CC(C)N(C)C(=O)Nc1ccc2c(c1)c1c(n2C(C)C)CCCC1 [Compound 5-2] |
| 98 | CC(C)n1c2c(c3cc(NC(=O)N4CCOCC4)ccc31)CCCC2 [Compound 8-4] |
| 99 | CC(C)n1c2c(c3cc(NC(=O)N4CCCCC4)ccc31)CCCC2 [Compound 7-2] |
| 75 | CC(C)n1c2c(c3cc(NC(=O)N4CCN(C)CC4)ccc31)CCCC2 [Compound 7-19] |
| 95 | CC(C)n1c2c(c3cc(NC(=O)N4CCCCC4CCO)ccc31)CCCC2 (stereo not drawn) [Compound 7-11] |

| SMILES | % Inhibition ratio (10 μM) [%] |
| --- | --- |
| CC(=O)n1c2c(c3cc(NC(=O)N4CCOCC4)ccc31)CCCC2 [Compound 8-11] | 102 |
| CC(C)n1c2c(c3cc(NC(=O)N4CCCC(CO)C4)ccc31)CCCC2 (stereo not drawn) [Compound 7-10] | 97 |
| CC(C)n1c2c(c3cc(NC(=O)N(C)CCc4ccccn4)ccc31)CCC2 [Compound 10-2] | 83 |
| CC(C)n1c2c(c3cc(NC(=O)N(C)CCCCO)ccc31)CCCC2 [Compound 5-6] | 89 |
| CC(C)n1c2c(c3cc(NC(=O)N(C)CCC#N)ccc31)CCCC2 [Compound 5-9] | 98 |
| CC(C)n1c2c(c3cc(NC(=O)N4CCOC(CCO)C4)ccc31)CCCC2 (stereo not drawn) [Compound 7-17] | 99 |
| CC(C)n1c2c(c3cc(NC(=O)N(C)CCc4ccccn4)ccc31)CCCCC2 [Compound 11-2] | 96 |
| CCCCN(C)C(=O)Nc1ccc2c(c1)c1c(n2C(C)C)CCCC1 [Compound 5-3] | 98 |
| CC(C)n1c2c(c3cc(NC(=O)N4C[C@@H](C)O[C@@H](C)C4)ccc31)CCCC2 [Compound 7-16] | 96 |
| CC(C)n1c2c(c3cc(NC(=O)N(C)CCc4ccccn4)ccc31)CCCC2 [Compound 5-18] | 100 |
| CCCCn1c2c(c3cc(NC(=O)N4CCOCC4)ccc31)CCCC2 [Compound 8-5] | 85 |
| CC(C)n1c2c(c3cc(NC(=O)N(C)CCc4ccncc4)ccc31)CCCC2 [Compound 5-20] | 103 |
| COCCN(CCOC)C(=O)Nc1ccc2c(c1)c1c(n2C(C)C)CCCC1 [Compound 6-3] | 102 |
| CC(C)n1c2c(c3cc(NC(=O)N(C)CCN4CCOCC4)ccc31)CCCC2 [Compound 5-16] | 86 |

Source: patent publication US6713473B1, “Tricyclic compounds” (Meiji Seika Kaisha, Ltd., priority 1999, dated 2004)
